The values that follow come from ChEMBL document CHEMBL1759893, “1,4-Diazepane compounds as potent and selective CB2 agonists: optimization of metabolic stability” (Bioorg Med Chem Lett, 2011).

Each structure is given as a SMILES string. ≈ marks a conversion by molar mass, not a printed value.

Data set [1] is described as follows: Aqueous solubility of the compound at pH 7.4. The format is physicochemical. Particulars: buffer.
Data set [2] is filed under the species Rattus norvegicus. In words: Hepatic blood flow in rat. Type of data set: ADME, organism-based, Liver.
The species named for data set [3] is Homo sapiens. In words: Hepatic blood flow in human. Type of data set: ADME, organism-based, Liver.
A short description of data set [4]: Volume of distribution at steady state in Wistar rat at 1 umol/kg, iv. Type of data set: ADME, organism-based, Wister. Particulars: in vivo, read-out: Vdss.
A short description of data set [5]: Oral bioavailability in Wistar rat at 10 umol/kg. Type of data set: ADME, organism-based, Wister. Particulars: in vivo.
A short description of data set [6]: AUC (0 to infinity) in Wistar rat at 10 umol/kg, po. The format is ADME, organism-based, Wister. More on the design: dose 10 umol/kg, route oral, time infinity. Particulars: plasma.
The nature of data set [7]: Cmax in Wistar rat at 10 umol/kg, po. Type of data set: ADME, organism-based, Wister. Also noted: dose 10 umol/kg, route oral. Particulars: in vivo.

The term solubility denotes the concentration that dissolves in the medium under given conditions. The low end stands for a poorly soluble substance, the high end for a readily soluble substance. As to `CCCCc1ccc(NC(=O)N2CCCN(C(=O)CCC3CCCC3)CC2)cc1`, the solubility in data set [1] amounted to 3 µg/mL (≈ 7.51 µM).
As usually defined, the bioavailability is dose-corrected exposure relative to a reference, in per cent. Lower therefore signals little systemic uptake. The AUC(0-inf) is total exposure, with the tail of the curve extrapolated. Read a low AUC(0-inf) as less exposure. By Cmax is commonly meant the maximum level reached in the sampled fluid or tissue. In the case of `CC(C)(C)c1cc(NC(=O)N2CCCN(C(=O)C3CCOCC3)CC2)no1`, the QH in data set [2] was 35%; in data set [3] it was below 24%. This compound displayed a solubility in data set [1] above 37 µg/mL. The Vd in data set [4] was 0.87 L/kg. Besides, in data set [5], the bioavailability is 28%. Also, the total exposure AUC(0-inf) in data set [6] was determined as 1.38 µM·h. Moreover, the Cmax in data set [7] amounted to 1760 ng/mL.
For `CC(C)(C)c1cc(NC(=O)N2CCCN(C(=O)C3CCOCC3)CC2)on1`, the QH in data set [2] is recorded as below 23%; in data set [3] it was below 24%. The compound also returned a solubility in data set [1] above 37 µg/mL.
In the same order, the values of `CC(C)(C)c1cc(NC(=O)N2CCCN(C(=O)CN3CCS(=O)(=O)CC3)CC2)no1` are 27%, 50% and above 96 µg/mL.
In the same order, the values of `CC(C)(C)c1cc(NC(=O)N2CCCN(C(=O)N3CCS(=O)(=O)CC3)CC2)no1` are 42%, below 24% and 18 µg/mL (≈ 42.1 µM).
